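These data come from cells grown in 96-well plates and exposed to compound for 48 hours at five concentrations. GI50 marks 50% less growth. TGI: concentration producing complete growth inhibition.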
Key:
Experiment in all cases: NCI tumour cell line growth inhibition, 48 h
786-0 renal = system: 786-0 renal
A498 renal = system: A498 renal
A549 NSCLC = system: A549 NSCLC
ACHN renal = system: ACHN renal
BT-549 breast = system: BT-549 breast
CAKI-1 renal = system: CAKI-1 renal
CCRF-CEM leukemia = system: CCRF-CEM leukemia
COLO 205 colon = system: COLO 205 colon
DU-145 prostate = system: DU-145 prostate
HCC-2998 colon = system: HCC-2998 colon
HCT-116 colon = system: HCT-116 colon
HCT-15 colon = system: HCT-15 colon
HL-60(TB) leukemia = system: HL-60(TB) leukemia
HOP-62 NSCLC = system: HOP-62 NSCLC
HOP-92 NSCLC = system: HOP-92 NSCLC
HS 578T breast = system: HS 578T breast
HT29 colon = system: HT29 colon
IGROV1 ovarian = system: IGROV1 ovarian
K-562 leukemia = system: K-562 leukemia
KM12 colon = system: KM12 colon
LOX IMVI melanoma = system: LOX IMVI melanoma
M14 melanoma = system: M14 melanoma
MALME-3M melanoma = system: MALME-3M melanoma
MCF7 breast = system: MCF7 breast
MDA-MB-231 breast = system: MDA-MB-231 breast
MDA-MB-435 = system: MDA-MB-435
MOLT-4 leukemia = system: MOLT-4 leukemia
NCI-H226 lung = system: NCI-H226 lung
NCI-H23 lung = system: NCI-H23 lung
NCI-H460 lung = system: NCI-H460 lung
NCI-H522 lung = system: NCI-H522 lung
NCI/ADR-RES ovarian = system: NCI/ADR-RES ovarian
OVCAR-3 ovarian = system: OVCAR-3 ovarian
OVCAR-4 ovarian = system: OVCAR-4 ovarian
OVCAR-5 ovarian = system: OVCAR-5 ovarian
OVCAR-8 ovarian = system: OVCAR-8 ovarian
PC-3 prostate = system: PC-3 prostate
RPMI-8226 leukemia = system: RPMI-8226 leukemia
RXF 393 renal = system: RXF 393 renal
SF-268 CNS = system: SF-268 CNS
SF-295 CNS = system: SF-295 CNS
SF-539 CNS = system: SF-539 CNS
SK-MEL-2 melanoma = system: SK-MEL-2 melanoma
SK-MEL-28 melanoma = system: SK-MEL-28 melanoma
SK-MEL-5 melanoma = system: SK-MEL-5 melanoma
SK-OV-3 ovarian = system: SK-OV-3 ovarian
SN12C renal = system: SN12C renal
SNB-19 CNS = system: SNB-19 CNS
SNB-75 CNS = system: SNB-75 CNS
SW-620 colon = system: SW-620 colon
T-47D breast = system: T-47D breast
TK-10 renal = system: TK-10 renal
U251 CNS = system: U251 CNS
UACC-257 melanoma = system: UACC-257 melanoma
UACC-62 melanoma = system: UACC-62 melanoma
UO-31 renal = system: UO-31 renal
EKVX NSCLC = system: EKVX NSCLC

O=C1NC(=NCc2c(Cl)cccc2Cl)S/C1=C\c1ccc2ncccc2c1
GI50 (786-0 renal): 9.79 µM | TGI (786-0 renal): > 25 µM | GI50 (A498 renal): 4.47 µM | TGI (A498 renal): > 25 µM | GI50 (A549 NSCLC): 10.2 µM | TGI (A549 NSCLC): > 25 µM | GI50 (ACHN renal): 8.11 µM | TGI (ACHN renal): > 25 µM | GI50 (BT-549 breast): 6.24 µM | TGI (BT-549 breast): > 25 µM | GI50 (CAKI-1 renal): 11 µM | TGI (CAKI-1 renal): > 25 µM | GI50 (CCRF-CEM leukemia): 9.19 µM | TGI (CCRF-CEM leukemia): > 25 µM | GI50 (COLO 205 colon): 14.7 µM | TGI (COLO 205 colon): > 25 µM | GI50 (DU-145 prostate): 6.3 µM | TGI (DU-145 prostate): > 25 µM | GI50 (HCC-2998 colon): > 25 µM | TGI (HCC-2998 colon): > 25 µM | GI50 (HCT-116 colon): 6.15 µM | TGI (HCT-116 colon): > 25 µM | GI50 (HCT-15 colon): 4.85 µM | TGI (HCT-15 colon): > 25 µM | GI50 (HL-60(TB) leukemia): 5.35 µM | TGI (HL-60(TB) leukemia): > 25 µM | GI50 (HOP-62 NSCLC): 7.03 µM | TGI (HOP-62 NSCLC): > 19.9 µM | GI50 (HOP-92 NSCLC): 4.25 µM | TGI (HOP-92 NSCLC): 20.2 µM | GI50 (HS 578T breast): 8.78 µM | TGI (HS 578T breast): > 21.1 µM | GI50 (HT29 colon): 24.9 µM | TGI (HT29 colon): > 25 µM | GI50 (IGROV1 ovarian): 13.1 µM | TGI (IGROV1 ovarian): > 25 µM | GI50 (K-562 leukemia): 8.91 µM | TGI (K-562 leukemia): > 25 µM | GI50 (KM12 colon): 16 µM | TGI (KM12 colon): > 25 µM | GI50 (LOX IMVI melanoma): 13.7 µM | TGI (LOX IMVI melanoma): > 25 µM | GI50 (M14 melanoma): > 23.3 µM | TGI (M14 melanoma): > 25 µM | GI50 (MALME-3M melanoma): 10.6 µM | TGI (MALME-3M melanoma): > 25 µM | GI50 (MCF7 breast): 16.1 µM | TGI (MCF7 breast): > 25 µM | GI50 (MDA-MB-231 breast): 16.3 µM | TGI (MDA-MB-231 breast): > 25 µM | GI50 (MDA-MB-435): 9.24 µM | TGI (MDA-MB-435): > 25 µM | GI50 (MOLT-4 leukemia): 12.9 µM | TGI (MOLT-4 leukemia): > 25 µM | GI50 (NCI-H226 lung): 6.61 µM | TGI (NCI-H226 lung): > 25 µM | GI50 (NCI-H23 lung): 11.6 µM | TGI (NCI-H23 lung): > 25 µM | GI50 (NCI-H460 lung): 8.31 µM | TGI (NCI-H460 lung): > 25 µM | GI50 (NCI-H522 lung): 3.99 µM | TGI (NCI-H522 lung): 8.77 µM | GI50 (NCI/ADR-RES ovarian): 12 µM | TGI (NCI/ADR-RES ovarian): > 25 µM | GI50 (OVCAR-3 ovarian): 8.22 µM | TGI (OVCAR-3 ovarian): > 25 µM | GI50 (OVCAR-4 ovarian): 6.53 µM | TGI (OVCAR-4 ovarian): > 24 µM | GI50 (OVCAR-5 ovarian): > 19.5 µM | TGI (OVCAR-5 ovarian): > 25 µM | GI50 (OVCAR-8 ovarian): 10.6 µM | TGI (OVCAR-8 ovarian): > 25 µM | GI50 (PC-3 prostate): 13.4 µM | TGI (PC-3 prostate): > 25 µM | GI50 (RPMI-8226 leukemia): 9.29 µM | TGI (RPMI-8226 leukemia): > 25 µM | GI50 (RXF 393 renal): 6.05 µM | TGI (RXF 393 renal): > 24.2 µM | GI50 (SF-268 CNS): 6.71 µM | TGI (SF-268 CNS): > 25 µM | GI50 (SF-295 CNS): > 12.1 µM | TGI (SF-295 CNS): > 25 µM | GI50 (SF-539 CNS): 3.59 µM | TGI (SF-539 CNS): 10.7 µM | GI50 (SK-MEL-2 melanoma): 9.12 µM | TGI (SK-MEL-2 melanoma): 24.5 µM | GI50 (SK-MEL-28 melanoma): > 22.9 µM | TGI (SK-MEL-28 melanoma): > 25 µM | GI50 (SK-MEL-5 melanoma): 13.9 µM | TGI (SK-MEL-5 melanoma): > 25 µM | GI50 (SK-OV-3 ovarian): 7.53 µM | TGI (SK-OV-3 ovarian): > 25 µM | GI50 (SN12C renal): 14.1 µM | TGI (SN12C renal): > 25 µM | GI50 (SNB-19 CNS): 11.3 µM | TGI (SNB-19 CNS): > 25 µM | GI50 (SNB-75 CNS): 1.14 µM | TGI (SNB-75 CNS): > 25 µM | GI50 (SW-620 colon): 10.6 µM | TGI (SW-620 colon): > 25 µM | GI50 (T-47D breast): 9.64 µM | TGI (T-47D breast): > 25 µM | GI50 (TK-10 renal): 3.14 µM | TGI (TK-10 renal): > 22.9 µM | GI50 (U251 CNS): 8.17 µM | TGI (U251 CNS): > 25 µM | GI50 (UACC-257 melanoma): > 13.7 µM | TGI (UACC-257 melanoma): > 25 µM | GI50 (UACC-62 melanoma): 15.9 µM | TGI (UACC-62 melanoma): > 25 µM | GI50 (UO-31 renal): 4.72 µM | TGI (UO-31 renal): 21.1 µM

N#CC(NCCc1ccccc1)c1ccc(C(C#N)NCCc2ccccc2)cc1 (stereo unspecified)
TGI (786-0 renal): > 100 µM | TGI (A498 renal): > 100 µM | TGI (A549 NSCLC): > 100 µM | TGI (ACHN renal): > 100 µM | TGI (BT-549 breast): 56.1 µM | TGI (CAKI-1 renal): > 100 µM | TGI (CCRF-CEM leukemia): 65.7 µM | TGI (COLO 205 colon): > 100 µM | TGI (DU-145 prostate): > 100 µM | TGI (EKVX NSCLC): > 100 µM | TGI (HCC-2998 colon): > 100 µM | TGI (HCT-116 colon): > 100 µM | TGI (HCT-15 colon): > 100 µM | TGI (HL-60(TB) leukemia): 40.8 µM | TGI (HOP-92 NSCLC): > 100 µM | TGI (HS 578T breast): > 100 µM | TGI (HT29 colon): > 100 µM | TGI (IGROV1 ovarian): > 100 µM | TGI (K-562 leukemia): 70.6 µM | TGI (KM12 colon): > 100 µM | TGI (LOX IMVI melanoma): > 100 µM | TGI (M14 melanoma): > 100 µM | TGI (MALME-3M melanoma): > 100 µM | TGI (MCF7 breast): > 100 µM | TGI (MDA-MB-231 breast): > 100 µM | TGI (MDA-MB-435): > 100 µM | TGI (MOLT-4 leukemia): > 100 µM | TGI (NCI-H226 lung): > 100 µM | TGI (NCI-H23 lung): > 100 µM | TGI (NCI-H460 lung): > 100 µM | TGI (NCI-H522 lung): > 100 µM | TGI (NCI/ADR-RES ovarian): 57.5 µM | TGI (OVCAR-3 ovarian): > 100 µM | TGI (OVCAR-4 ovarian): > 100 µM | TGI (OVCAR-5 ovarian): > 100 µM | TGI (OVCAR-8 ovarian): > 100 µM | TGI (PC-3 prostate): > 100 µM | TGI (RXF 393 renal): > 100 µM | TGI (SF-268 CNS): > 100 µM | TGI (SF-295 CNS): > 100 µM | TGI (SF-539 CNS): > 100 µM | TGI (SK-MEL-2 melanoma): > 100 µM | TGI (SK-MEL-28 melanoma): > 100 µM | TGI (SK-MEL-5 melanoma): > 100 µM | TGI (SK-OV-3 ovarian): > 100 µM | TGI (SN12C renal): > 100 µM | TGI (SNB-19 CNS): > 100 µM | TGI (SW-620 colon): > 100 µM | TGI (T-47D breast): > 100 µM | TGI (TK-10 renal): > 100 µM | TGI (U251 CNS): > 100 µM | TGI (UACC-257 melanoma): > 100 µM | TGI (UACC-62 melanoma): > 100 µM | TGI (UO-31 renal): > 100 µM
